# Measurements taken from patent US20100317647A1 (priority 2009, published 2010).
# Target: human Cat S (Homo sapiens, UniProt P25774)
# Assay: Cathepsin enzyme inhibition assay (fluorogenic peptide substrate cleavage)
# Assay type: biochemical
# Settings: human Cat S 1 nM; substrate Z-Val-Val-Arg-AMC 20 μM; pH 6.5; fluorescence over 20 minutes
# Summary of the method: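 IC50 values derived from fluorescence increase (ex 360 nm, em 465 nm) monitored for 20 minutes after substrate addition. Enzyme held at 1 nM with 20 μM Z-Val-Val-Arg-AMC, in pH 6.5 potassium phosphate buffer containing DTT, EDTA and Triton X-100.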
# Sequence of human Cat S (P25774 115-331): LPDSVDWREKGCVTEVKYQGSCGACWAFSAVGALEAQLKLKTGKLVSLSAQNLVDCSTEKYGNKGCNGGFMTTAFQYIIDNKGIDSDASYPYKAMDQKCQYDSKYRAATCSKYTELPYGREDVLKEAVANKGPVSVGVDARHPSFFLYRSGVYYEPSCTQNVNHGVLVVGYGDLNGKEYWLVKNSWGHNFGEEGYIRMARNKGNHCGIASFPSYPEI
row,Compound,IC50
1,"N#CC1(NC(=O)[C@@H]2C[C@@H](S(=O)(=O)c3ccc(F)cc3Cl)C[C@H]2C(=O)N2CCC(F)(F)C2)CC1 [Example 186, (1R,2R,4R)-4-(2-Chloro-4-fluoro-benzenesulfonyl)-2-(3,3-difluoro-pyrrolidine-1-carbonyl)-cyclopentanecarboxylic acid (1-cyano-cyclopropyl)-amide]",2.15 nM
2,"CO[C@@H]1C[C@H](S(=O)(=O)c2ccc(-c3ccc(F)cn3)cc2C(F)(F)F)C[C@H]1C(=O)NC1(C#N)CC1 (racemic) [Example 30, (1R,2R,4R) and (1S,2S,4S)-4-[4-(5-Fluoro-pyridin-2-yl)-2-trifluoromethyl-benzenesulfonyl]-2-methoxy-cyclopentanecarboxylic acid (1-cyano-cyclopropyl)-amide]",1 nM
3,"CO[C@@H]1C[C@H](S(=O)(=O)c2ccc(-c3ccc(S(N)(=O)=O)cc3)cc2C(F)(F)F)C[C@H]1C(=O)NC1(C#N)CC1 (racemic) [Example 76, (1R,2R,4R) and (1S,2S,4S)-2-Methoxy-4-(4′-sulfamoyl-3-trifluoromethyl-biphenyl-4-sulfonyl)-cyclopentanecarboxylic acid (1-cyano-cyclopropyl)-amide]",0.6 nM
4,"CO[C@@H]1C[C@H](S(=O)(=O)c2ccc(-c3cncnc3)cc2C(F)(F)F)C[C@H]1C(=O)NC1(C#N)CC1 (racemic) [Example 82, (1R,2R,4R) and (1S,2S,4S)-2-Methoxy-4-(4-pyrimidin-5-yl-2-trifluoromethyl-benzenesulfonyl)-cyclopentanecarboxylic acid (1-cyano-cyclopropyl)-amide]",0.6 nM
5,"CC(=O)N1CCN(c2ccc(S(=O)(=O)[C@@H]3C[C@@H](C(=O)NC4(C#N)CC4)[C@H](C(=O)N4CC(F)(F)C4)C3)c(Cl)c2)CC1 [Example 166, (1R,2R,4R)-4-[4-(4-Acetyl-piperazin-1-yl)-2-chloro-benzenesulfonyl]-2-(3,3-difluoro-azetidine-1-carbonyl)-cyclopentanecarboxylic acid (1-cyano-cyclopropyl)-amide]",0.6 nM
6,"N#CCNC(=O)[C@@H]1C[C@@H](S(=O)(=O)c2cccc3ccccc23)C[C@H]1C(=O)N1CCOCC1 [Example 36, (1R,2R,4R)-2-(Morpholine-4-carbonyl)-4-(naphthalene-1-sulfonyl)-cyclopentanecarboxylic acid cyanomethyl-amide]",0.4 nM
7,"N#CC1(NC(=O)[C@@H]2CC(S(=O)(=O)c3ccccc3Cl)C[C@H]2COc2ccc(O)nn2)CC1 (mixture of isomers) [Example 108, (1R,2R,4S)-4-(2-Chloro-benzenesulfonyl)-2-(6-hydroxy-pyridazin-3-yloxymethyl)-cyclopentanecarboxylic acid(1-cyano-cyclopropyl)-amide and (1R,2R,4R)-4-(2-Chloro-benzenesulfonyl)-2-(6-hydroxy-pyridazin-3-yloxymethyl)-cyclopentanecarboxylic acid(1-cyano-cyclopropyl)-amide]",21.2 nM
8,"N#CC1(NC(=O)[C@@H]2C[C@@H](S(=O)(=O)c3ccc(N4CCN(CC(F)(F)F)CC4)cc3C(F)(F)F)C[C@H]2OC2CCCC2)CC1 (racemic) [Example 230, (1R,2R,4R) and (1S,2S,4S)-2-Cyclopentyloxy-4-{4-[4-(2,2,2-trifluoro-ethyl)-piperazin-1-yl]-2-trifluoromethyl-benzenesulfonyl}-cyclopentanecarboxylic acid (1-cyano-cyclopropyl)-amide]",0.0275 nM
9,"N#CC1(NC(=O)[C@@H]2C[C@H](S(=O)(=O)c3ccccn3)C[C@H]2C(=O)N2CCC(F)(F)C2)CC1 [Example 228, (1R,2R,4S)-2-(3,3-Difluoro-pyrrolidine-1-carbonyl)-4-(pyridine-2-sulfonyl)-cyclopentanecarboxylic acid (1-cyano-cyclopropyl)-amide]",91 nM
10,"CO[C@@H]1C[C@H](S(=O)(=O)c2ccc(Br)cc2C(F)(F)F)C[C@H]1C(=O)NC1(C#N)CC1 (single isomer, unassigned) [Example 137]",4.8 nM
11,"N#CC1(NC(=O)[C@@H]2C[C@@H](S(=O)(=O)c3ccccc3)C[C@H]2C(=O)N2CC3(COC3)C2)CC1 [Example 11, (1R,2R,4R)-4-Benzenesulfonyl-2-(2-oxa-6-aza-spiro[3.3]heptane-6-carbonyl)-cyclopentanecarboxylic acid (1-cyano-cyclopropyl)-amide]",3 nM
12,"N#CC1(NC(=O)[C@@H]2C[C@@H](S(=O)(=O)c3ccc(-c4ccnc(Cl)c4)cc3Cl)C[C@H]2C(=O)N2CCC(F)(F)C2)CC1 [Example 199, (1R,2R,4R)-4-[2-Chloro-4-(2-chloro-pyridin-4-yl)-benzenesulfonyl]-2-(3,3-difluoro-pyrrolidine-1-carbonyl)-cyclopentanecarboxylic acid (1-cyano-cyclopropyl)-amide]",0.135 nM
13,"N#CC1(NC(=O)[C@@H]2C[C@@H](S(=O)(=O)c3ccc(N4CCN(C5CC5)CC4)cc3C(F)(F)F)C[C@H]2C(=O)N2CC(F)(F)C2)CC1 [Example 129, (1R,2R,4R)-4-[4-(4-Cyclopropyl-piperazin-1-yl)-2-trifluoromethyl-benzenesulfonyl]-2-(3,3-difluoro-azetidine-1-carbonyl)-cyclopentanecarboxylic acid (1-cyano-cyclopropyl)-amide]",0.6 nM
14,"C[C@H](Oc1ccc(S(=O)(=O)[C@H]2CC[C@H](C(=O)NCC#N)C2)c(Cl)c1)C(F)(F)F (racemic) [Example 80, (1S,3S)-3-[2-Chloro-4-(2,2,2-trifluoro-1-methyl-ethoxy)-benzenesulfonyl]-cyclopentanecarboxylic acid cyanomethyl-amide (epimeric mixture of racemate)]",1030 nM
15,"CO[C@@H]1C[C@H](S(=O)(=O)c2ccc(-n3cc(C)cn3)cc2Cl)C[C@H]1C(=O)NC1(C#N)CC1 (racemic) [Example 149, (1R,2R,4R) and (1S,2S,4S)-4-[2-Chloro-4-(4-methyl-pyrazol-1-yl)-benzenesulfonyl]-2-methoxy-cyclopentanecarboxylic acid (1-cyano-cyclopropyl)-amide]",1.93 nM
16,"N#CCNC(=O)[C@@H]1C[C@@H](S(=O)(=O)CC2CC2)C[C@H]1C(=O)N1CCOCC1 [Example 40, (1R,2R,4R)-4-Cyclopropylmethanesulfonyl-2-(morpholine-4-carbonyl)-cyclopentanecarboxylic acid cyanomethyl-amide]",230 nM
17,"N#CC1(NC(=O)[C@@H]2C[C@@H](S(=O)(=O)c3ccc(-n4cccn4)cc3Cl)C[C@H]2C(=O)N2CC(F)(F)C2)CC1 [Example 167, (1R,2R,4R)-4-(2-Chloro-4-pyrazol-1-yl-benzenesulfonyl)-2-(3,3-difluoro-azetidine-1-carbonyl)-cyclopentanecarboxylic acid (1-cyano-cyclopropyl)-amide]",1.47 nM
18,"N#CC1(NC(=O)[C@@H]2C[C@@H](S(=O)(=O)c3ccc(-c4cncc(-c5cnc(Cl)cn5)n4)cc3C(F)(F)F)C[C@H]2C(=O)N2CC(F)(F)C2)CC1 [Example 126, (1R,2R,4R)-4-[4-(5′-Chloro-[2,2]bipyrazinyl-6-yl)-2-trifluoromethyl-benzenesulfonyl]-2-(3,3-difluoro-azetidine-1-carbonyl)-cyclopentanecarboxylic acid (1-cyano-cyclopropyl)-amide]",0.6 nM
19,"N#CC1(NC(=O)[C@H]2CC[C@@H](S(=O)(=O)c3ccc(-n4cccn4)cc3Cl)C2)CC1 (single isomer, unassigned) [Example 101]",610 nM
20,"N#CC1(NC(=O)[C@@H]2C[C@@H](S(=O)(=O)c3ccc(Br)cc3C(F)(F)F)C[C@H]2C(=O)N2CC(F)(F)C2)CC1 [Example 117, (1R,2R,4R)-4-(4-Bromo-2-trifluoromethyl-benzenesulfonyl)-2-(3,3-difluoro-azetidine-1-carbonyl)-cyclopentanecarboxylic acid (1-cyano-cyclopropyl)-amide]",1.1 nM
21,"N#CC1(NC(=O)[C@@H]2C[C@@H](S(=O)(=O)c3ccc(F)cc3Cl)C[C@H]2COc2ccc(F)cc2)CC1 (single isomer, unassigned) [Example 145]",1.25 nM
22,"Cn1cc(-c2ccc(S(=O)(=O)[C@H]3C[C@@H](OC4CCOCC4)[C@H](C(=O)NC4(C#N)CC4)C3)c(C(F)(F)F)c2)cn1 (racemic) [Example 173, (1R,2R,4R) and (1S,2S,4S)-4-[4-(1-Methyl-1H-pyrazol-4-yl)-2-trifluoromethyl-benzenesulfonyl]-2-(tetrahydro-pyran-4-yloxy)-cyclopentanecarboxylic acid (1-cyano-cyclopropyl)-amide]",0.217 nM
23,"CO[C@@H]1C[C@H](S(=O)(=O)c2ccc(-c3ccc(C)nc3)cc2C(F)(F)F)C[C@H]1C(=O)NC1(C#N)CC1 (racemic) [Example 81, (1R,2R,4R) and (1S,2S,4S)-2-Methoxy-4-[4-(6-methyl-pyridin-3-yl)-2-trifluoromethyl-benzenesulfonyl]-cyclopentanecarboxylic acid (1-cyano-cyclopropyl)-amide]",0.6 nM
24,"Cn1nccc1-c1cccc(S(=O)(=O)[C@@H]2C[C@@H](C(=O)NC3(C#N)CC3)[C@H](C(=O)N3CCC(F)(F)C3)C2)c1 [Example 201, (1R,2R,4R)-2-(3,3-Difluoro-pyrrolidine-1-carbonyl)-4-[3-(2-methyl-2H-pyrazol-3-yl)-benzenesulfonyl]-cyclopentanecarboxylic acid (1-cyano-cyclopropyl)-amide]",0.34 nM
25,"N#CC1(NC(=O)[C@@H]2C[C@@H](S(=O)(=O)c3ccccc3)C[C@H]2C(=O)N2CC(O)C2)CC1 [Example 15, (1R,2R,4R)-4-Benzenesulfonyl-2-(3-hydroxy-azetidine-1-carbonyl)-cyclopentanecarboxylic acid (1-cyano-cyclopropyl)-amide]",7.4 nM
